Reference: patent US20080279961A1, “TELOMERE TARGETING AGENTS AS STEM CELLS DIRECTED TREATMENTS” (priority 2007, published 2008)
Entries after “also recorded” stand apart in the source; their conditions may differ.

Assays:
[1] = tested on: HEK293T human embryonic kidney cells; assay: HTCA colony assay on normal embryonic kidney cells; format: cell-based
Procedure: (§1) In human tumor stem cell assay (HTCA)/clonogenic assay, single cell suspensions from in vivo studies above were washed in medium and passed through sieves and the resulting single cell suspensions seeded into soft agar (n=3 tumors per group) as described by us before (Fiebig et al., 2004). Single cell suspensions of cell lines were prepared by trypsinization from cells growing as monolayers on plastic. Briefly, 5,000 (HEK293T cells), 10,000 (PC3, MCF-7 and UXF1138L cells) or 50,000 (UXF1138L tumor tissue) vital cells were added to 0.2 ml Iscove's medium/20% fetal bovine serum/0.05% gentamycin containing 0.4% agar and plated on top of a base layer consisting of 0.2 ml medium with 0.75% agar. The next day, the agar layers were fed with Isocve's medium and cultures incubated at 37° C., 7% CO2 for approximately 11 days. Vital colonies were stained with 2-(4-iodophenyl)-3-(4-nitrophenyl)-5-phenyltetrazolium chloride (1 mg/ml) 24 hrs before evaluation, and colonies >70 μm were counted with an automated image analysis system (Omincon FAS IV, BIOSYS GmbH, Karben, Germany). Drug effect was assessed as growth inhibitory concentrations 50 and 70% (IC50, IC70). Methylcellulose was used to grow cord blood stem cells instead of soft agar. The seeding density was 20,000 cells/well. Stem cell growth factor supplemented and optimized methylcellulose (Methocult H4434) was purchased from Stem Cell Technologies (Vancouver, CA). Methylcellulose lacking growth factors was used as negative growth control. Statistical significance between treatment groups was evaluated by using the Student T-test.
To assess RHPS4 effects on normal stem cells, the human embryonic kidney cell line HEK293T was exposed to drug in the MTT and HTCA assays, and tested RHPS4 effects on colony forming units of the mononuclear cell fraction of human cord blood in methyl cellulose (FIG. 2C). The cord blood colony assay was performed with and without colony stimulating growth factors, only methylcellulose containing growth factors grew colonies. […] Additionally, in normal cell types as compared to tumor cells, low and pharmacodynamically relevant concentrations of RHPS4 (0.01 to 1 microM) did induce colony formation (FIG. 2C). To assure that the induction of colony growth by RHPS4 in normal stem cells is reproducible, cord blood from three different individuals and HEK293T cells from different passages were used. Data shown in FIG. 2C represent the mean and standard deviation from three independent experiments. […] However, the plating efficiency (actual number of colonies growing per total number of cells seeded) varied among the experiments and therefore the results are shown as % of control growth. E.g. HEK293T control colony growth ranged from a mean number of 54 to 463 colonies per well, but the least percentage (cut-off level) of growth induction by RHPS4 observed in either, the individual HEK293T or the cord blood experiments, was 150%. […] Instead, at RHPS4 levels that induced colony growth 2.4-fold (1 mircoM), bulk cell growth was inhibited to 60% of control (FIG. 2C).

[2] = tested on: human cord blood mononuclear cells; assay: methylcellulose colony assay; format: cell-based
Procedure: The UXF1138L uterus carcinoma cell line was originally established from a patient tumor by Prof. Heiner Fiebig at the University of Freiburg, Germany (Fiebig and Burger, 2001). All animal experiments were conducted under an animal license approved by the German Federal Government (Regierungspräsidium Freiburg) and in compliance with the UKCCCR guidelines on experimental neoplasia (Workman et al., 1998). Six to eight weeks old female thymus aplastic nude mice of NMRI genetic background were used for establishment and serial propagation of the human tumor xenograft from the cell line. PC3 and MCF-7 cells were obtained from American Type Culture Collection, Manassas, Va. The HEK293T human embryonic kidney cell line was a kind gift from Dr. Arun Seth, Sunnybrook Health Sciences Centre, Toronto, CA. Umbellical vein cord blood was freshly obtained from a hospital maternity ward with the consent of the respective patient, specimens were anonymized. The cord blood was collected into a BD Vacutainer CPT™ and the mononuclear fraction isolated by centrifugation following the manufacturers instructions.
as §1, with “T-test. […]” for “T-test.”

UXF1138L tumors = assay: atypical mitoses counted in xenograft sections; format: in vivo, nude mice
Procedure: Upon termination of the experiments, tumors from 3 mice per group were excised and immediately fixed in 10% PBS buffered formalin for 24 hours followed by routine paraffin embedding procedures (Burger et al. 2005).
Five-micrometer paraffin sections were cut, dewaxed, and antigen retrieval done in citrate buffer (pH 6.0) in the microwave for 30 minutes. Sections were then treated with methanol/3% hydrogen peroxide to remove endogenous peroxidase and blocked with 10% normal goat serum in PBS and stained. PBS was used as washing buffer. Cells were incubated overnight at 4° C. with a monoclonal anti-hTERT antibody (class IgG2a, kappa, Novacastra, Newcastle, UK) diluted 1:40 in PBS. Mouse immunoglobulin G2a isotype control (Santa Cruz) was used as negative control. hTERT-specific immunoperoxidase staining was developed using the DAKO Envision+ system (Envision 3,3V-diaminobenzidine Plus kit mouse, DAKO Cytomation). […] Sections were viewed and evaluated by two independent pathologists. Mean numbers of atypical mitoses were counted in control and treated tissues from 3 tumors (4 fields of 250 cells per tumor) for the 3 groups (Burger et al. 2005). Box plots were generated using SigmaPlot version 10 software and statistical significance between treatments calculated in SigmaPlot using the Student T-test.

In the case of `COS(=O)(=O)[O-].Cc1cc2c3c([n+](C)c4ccc(F)cc4c3c1)-c1cc(F)ccc1N2C` [RHPS4, 3,11-difluoro-6,8,13-trimethyl-8H-quino[4,3,2-kl]acridinium methosulfate], the “concentrations that markedly inhibited tumor colony forming units and induced cord blood and HEK293T colony growth” value [1] is reported as 0.1-1 mircoM, the “sensitivity of cord blood and HEK293T colony forming units versus tumor cell colonies” value [1] is reported as “over a log-fold less sensitive” and the “stimulation of growth, number of colonies compared to vehicle” value ([1]; 0.1 and 1 mircoM RHPS4, HEK293T) is reported as “doubling to tripling the number of colonies”. The “induction of colony growth” value ([1]; 1 mircoM RHPS4, HEK293T) was 2.4 fold, the “drug concentration at which cell kill of normal stem cells was seen” value ([1]; HEK293T colony forming units) was roughly 10 mircoM and the “concentrations inhibiting normal colony formation above those inhibiting tumor cell colony formation” value ([1]; human embryonic kidney and cord blood vs tumor cells) was “over 25 fold”. For the same compound, the “RHPS4 concentrations that inhibited colony formation” value ([1]; human embryonic kidney cells) was greater than 1 mircoM, the “least percentage (cut-off level) of growth induction” value ([1]; individual HEK293T experiments, % of control growth) was no less than 150% and the “stimulation of growth, number of colonies compared to vehicle” value ([2]; 0.1 and 1 mircoM RHPS4, cord blood) was “doubling to tripling the number of colonies”. The “RHPS4 concentrations that inhibited colony formation” value ([2]; cord blood cells) was greater than 1 mircoM, the “drug concentration at which cell kill of normal stem cells was seen” value ([2]; cord blood colony forming units) was roughly 10 mircoM and the “least percentage (cut-off level) of growth induction” value ([2]; individual cord blood experiments, % of control growth) was no less than 150%. The “mitotic abnormalities compared to vehicle control” value (UXF1138L tumors; 5 mg/kg/d p.o.) was “significant induction of mitotic abnormalities; also recorded: increase in mitotic abnormalities” and the “atypical mitosis, mean number” value (UXF1138L tumors; UXF1138L tumors passage 4, control 0.35) was 1.25±0.19.
